Test results reported in patent US12540129B2, “KIF18A inhibitors” (AMGEN INC., priority 2019, dated 2026).

Target: T1, Recombinant human KIF18A (1-467 His-tagged) protein (Homo sapiens, UniProt Q8NI77)
T1 construct: Recombinant human KIF18A (1-467 His-tagged) protein; His; made in house
Assay: KIF18A Enzyme Assay: microtubule-stimulated ATPase activity (ADP-Glo)
Type: biochemical
Conditions: 30 nM KIF18A, 75 μM ATP
How it was run: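 Recombinant human KIF18A (1-467, His-tagged), baculovirus-expressed, assayed for microtubule-stimulated ATPase activity; ADP formed detected by ADP-Glo luminescence. Compounds tested as 22-point 2-fold serial dilutions in DMSO. IC50 from four-parameter logistic fit.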

T1 sequence (Q8NI77 1-467): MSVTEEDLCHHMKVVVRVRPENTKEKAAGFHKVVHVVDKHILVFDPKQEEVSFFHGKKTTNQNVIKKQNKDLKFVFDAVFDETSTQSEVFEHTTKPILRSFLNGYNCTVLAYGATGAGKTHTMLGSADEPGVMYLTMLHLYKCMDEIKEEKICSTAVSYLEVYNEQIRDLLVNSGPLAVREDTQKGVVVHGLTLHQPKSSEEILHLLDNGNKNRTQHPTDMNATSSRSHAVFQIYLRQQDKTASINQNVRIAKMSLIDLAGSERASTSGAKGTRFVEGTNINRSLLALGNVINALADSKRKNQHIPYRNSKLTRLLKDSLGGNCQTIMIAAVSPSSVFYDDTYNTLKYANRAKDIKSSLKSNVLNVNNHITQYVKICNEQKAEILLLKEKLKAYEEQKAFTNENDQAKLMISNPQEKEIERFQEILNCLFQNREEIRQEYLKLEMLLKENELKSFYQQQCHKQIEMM
T1 sequence (P02550 whole entry partner): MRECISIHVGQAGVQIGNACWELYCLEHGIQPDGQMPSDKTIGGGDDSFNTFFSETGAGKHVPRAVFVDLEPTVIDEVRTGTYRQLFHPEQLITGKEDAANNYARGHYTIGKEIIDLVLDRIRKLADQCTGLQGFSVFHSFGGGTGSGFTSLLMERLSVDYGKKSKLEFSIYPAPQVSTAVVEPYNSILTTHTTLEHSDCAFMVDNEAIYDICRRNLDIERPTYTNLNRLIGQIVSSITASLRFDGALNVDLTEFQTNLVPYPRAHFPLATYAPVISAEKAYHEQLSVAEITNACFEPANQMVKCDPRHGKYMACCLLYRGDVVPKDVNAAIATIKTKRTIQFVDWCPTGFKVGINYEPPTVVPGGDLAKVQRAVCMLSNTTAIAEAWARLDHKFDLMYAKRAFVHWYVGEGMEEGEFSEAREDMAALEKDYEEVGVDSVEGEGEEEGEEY
T1 sequence (P02554 whole entry partner): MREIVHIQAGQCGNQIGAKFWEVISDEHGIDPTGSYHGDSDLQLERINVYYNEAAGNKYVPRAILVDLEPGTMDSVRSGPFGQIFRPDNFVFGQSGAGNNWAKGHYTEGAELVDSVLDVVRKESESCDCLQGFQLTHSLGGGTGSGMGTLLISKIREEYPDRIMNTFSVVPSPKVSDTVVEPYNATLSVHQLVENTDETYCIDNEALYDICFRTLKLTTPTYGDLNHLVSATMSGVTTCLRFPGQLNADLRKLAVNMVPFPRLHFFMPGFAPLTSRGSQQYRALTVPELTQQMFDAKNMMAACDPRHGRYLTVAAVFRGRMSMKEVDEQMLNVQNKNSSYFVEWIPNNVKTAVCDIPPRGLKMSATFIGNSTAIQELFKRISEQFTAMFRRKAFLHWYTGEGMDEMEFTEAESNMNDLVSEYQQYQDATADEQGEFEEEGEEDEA

`CC(C)(C)NS(=O)(=O)c1cccc(NC(=O)c2ccc(N[C@H]3C[C@@H](O)C3)nc2N2CCC3(CC2)CC3)c1` [Example 102-29, N-(3-(N-(tert-butyl)sulfamoyl)phenyl)-6-(((1S,3S)-3-hydroxycyclobutyl)amino)-2-(6-azaspiro[2.5]octan-6-yl)nicotinamide] and `CC(C)(C)NS(=O)(=O)c1cccc(NC(=O)c2ccc(NCCCO)nc2N2CCC3(CC2)CC3)c1` [Example 102-30, N-(3-(N-(tert-butyl)sulfamoyl)phenyl)-6-((3-hydroxypropyl)amino)-2-(6-azaspiro[2.5]octan-6-yl)nicotinamide] are within 1.5-fold of each other in IC50: 0.098 µM for the first, 0.081 µM for the second.

Going from `Cc1ccc(NC(=O)c2cccnc2N2CCC3(CC2)CC3)cc1S(=O)(=O)C1CCCC1` [Example 100-20, N-(3-(cyclopentylsulfonyl)-4-methylphenyl)-2-(6-azaspiro[2.5]octan-6-yl)nicotinamide] to `Cc1ccc(NC(=O)c2ccc(NC(C)(CO)CO)nc2N2CCC3(CC2)CC3)cc1S(=O)(=O)C1CCCC1` [Example 106-4, N-(3-(cyclopentylsulfonyl)-4-methylphenyl)-6-((1,3-dihydroxy-2-methylpropan-2-yl)amino)-2-(6-azaspiro[2.5]octan-6-yl)nicotinamide], the IC50 falls from 0.279 µM to 0.04 µM (7-fold). The second is the more potent here.

`CC(C)(C)NS(=O)(=O)c1cccc(NC(=O)c2ccc(N3CC[C@H]4CC[C@@H]3O4)nc2N2CCC3(CC2)CC3)c1` [Example 102-9, 6-((1S,5R)-8-oxa-2-azabicyclo[3.2.1]octan-2-yl)-N-(3-(N-(tert-butyl)sulfamoyl)phenyl)-2-(6-azaspiro[2.5]octan-6-yl)nicotinamide] and `CC(C)(C)NS(=O)(=O)c1cccc(NC(=O)c2ccc(N3CC(C#N)C3)nc2N2CCC3(CC2)CC3)c1` [Example 102-11, N-(3-(N-(tert-butyl)sulfamoyl)phenyl)-6-(3-cyanoazetidin-1-yl)-2-(6-azaspiro[2.5]octan-6-yl)nicotinamide] are within 1.5-fold of each other in IC50: 0.127 µM for the first, 0.159 µM for the second.

`Cc1ccc(NC(=O)c2ccc(NC(C)(C)CO)nc2N2CCC3(CC2)CC3)cc1N1CCCC1=O` [Example 105-29, 6-((1-hydroxy-2-methylpropan-2-yl)amino)-N-(4-methyl-3-(2-oxopyrrolidin-1-yl)phenyl)-2-(6-azaspiro[2.5]octan-6-yl)nicotinamide] and `Cc1ccc(NC(=O)c2ccc(NC(C)(C)CO)nc2N2CCC3(CC2)CC3)cc1-c1ccoc1` [Example 111-1, N-(3-(furan-3-yl)-4-methylphenyl)-6-((1-hydroxy-2-methylpropan-2-yl)amino)-2-(6-azaspiro[2.5]octan-6-yl)nicotinamide] are within 1.5-fold of each other in IC50: 0.279 µM for the first, 0.265 µM for the second.

`COc1ccc(NC(=O)c2ccc(NC(C)(C)CO)nc2N2CCC3(CC2)CC3)cc1S(=O)(=O)NC(C)(C)C` [Example 105-20, N-(3-(N-(tert-butyl)sulfamoyl)-4-methoxyphenyl)-6-((1-hydroxy-2-methylpropan-2-yl)amino)-2-(6-azaspiro[2.5]octan-6-yl)nicotinamide] and `COc1cc(NC(=O)c2ccc(NC(C)(C)CO)nc2N2CCC3(CC2)CC3)cc(S(=O)(=O)NC(C)(C)C)c1` [Example 105-22, N-(3-(N-(tert-butyl)sulfamoyl)-5-methoxyphenyl)-6-((1-hydroxy-2-methylpropan-2-yl)amino)-2-(6-azaspiro[2.5]octan-6-yl)nicotinamide] are within 1.5-fold of each other in IC50: 0.162 µM for the first, 0.134 µM for the second.

Compared with `CC(C)(C)NS(=O)(=O)c1cc(NC(=O)c2ccc(NC(C)(C)CO)nc2N2CCC3(CC2)CC3)cc(C2CC2)c1` [Example 112-2, N-(3-(N-(tert-butyl)sulfamoyl)-5-cyclopropylphenyl)-6-((1-hydroxy-2-methylpropan-2-yl)amino)-2-(6-azaspiro[2.5]octan-6-yl)nicotinamide], `Cc1cc(NC(=O)c2ccc(NC(C)(C)CO)nc2N2CCC3(CC2)CC3)cc(S(=O)(=O)NC(C)(C)C)c1` [Example 105-18, N-(3-(N-(tert-butyl)sulfamoyl)-5-methylphenyl)-6-((1-hydroxy-2-methylpropan-2-yl)amino)-2-(6-azaspiro[2.5]octan-6-yl)nicotinamide] is 5.2-fold lower in IC50: 0.633 µM for the first, 0.122 µM for the second. The second is the more potent here.

`CC(C)(O)CNc1ccc(C(=O)Nc2cccc(S(=O)(=O)C3CCCC3)c2)c(N2CCC3(CC2)CC3)n1` [Example 103, N-(3-(Cyclopentylsulfonyl)phenyl)-6-((2-hydroxy-2-methylpropyl)amino)-2-(6-azaspiro[2.5]octan-6-yl)nicotinamide] and `CC(O)(c1ccc(C(=O)Nc2cccc(S(=O)(=O)C3CCCC3)c2)c(N2CCC3(CC2)CC3)n1)C(F)(F)F` (stereo not shown) [Example 108-2, N-(3-(cyclopentylsulfonyl)phenyl)-2-(6-azaspiro[2.5]octan-6-yl)-6-(1,1,1-trifluoro-2-hydroxypropan-2-yl)nicotinamide] are within 1.5-fold of each other in IC50: 0.058 µM for the first, 0.065 µM for the second.

First: CC(O)(c1ccc(C(=O)Nc2cccc(S(=O)(=O)NC3CC3)c2)c(N2CCC3(CC2)CC3)n1)C(F)(F)F (stereo not shown) [Example 108-1, N-(3-(N-cyclopropylsulfamoyl)phenyl)-2-(6-azaspiro[2.5]octan-6-yl)-6-(1,1,1-trifluoro-2-hydroxypropan-2-yl)nicotinamide]
Second: CC(C)(C)NS(=O)(=O)c1cccc(NC(=O)c2ccc([C@@](C)(O)C(F)(F)F)nc2N2CCC3(CC2)CC3)c1 (single isomer, unassigned) [Example 107-2]
The IC50 of the first is 1.9-fold lower: 0.052 µM for the first, 0.097 µM for the second. The first is the more potent here.

Compared with `Cn1ccnc1-c1cccc(NC(=O)c2ccc(NC(C)(C)CO)nc2N2CCC3(CC2)CC3)c1` [Example 111-9, 6-((1-hydroxy-2-methylpropan-2-yl)amino)-N-(3-(1-methyl-1H-imidazol-2-yl)phenyl)-2-(6-azaspiro[2.5]octan-6-yl)nicotinamide], `CC(C)(CO)Nc1ccc(C(=O)Nc2cccc(N3CCOCC3)c2)c(N2CCC3(CC2)CC3)n1` [Example 105-27, 6-((1-hydroxy-2-methylpropan-2-yl)amino)-N-(3-morpholinophenyl)-2-(6-azaspiro[2.5]octan-6-yl)nicotinamide] is 1.7-fold lower in IC50: 0.437 µM for the first, 0.262 µM for the second.

`CC(C)(C)NS(=O)(=O)c1cccc(NC(=O)c2ccc(NC(C)(CO)CO)nc2N2CCC3(CC2)CC3)c1` [Example 106-5, N-(3-(N-(tert-butyl)sulfamoyl)phenyl)-6-((1,3-dihydroxy-2-methylpropan-2-yl)amino)-2-(6-azaspiro[2.5]octan-6-yl)nicotinamide] and `CC(CO)(CO)Nc1ccc(C(=O)Nc2cccc(S(=O)(=O)NC3CC3)c2)c(N2CCC3(CC2)CC3)n1` [Example 106-6, N-(3-(N-cyclopropylsulfamoyl)phenyl)-6-((1,3-dihydroxy-2-methylpropan-2-yl)amino)-2-(6-azaspiro[2.5]octan-6-yl)nicotinamide] are within 1.5-fold of each other in IC50: 0.053 µM for the first, 0.048 µM for the second.

First: CC(C)(C)NS(=O)(=O)c1cccc(NC(=O)c2ccc(N3CC(S(C)(=O)=O)C3)nc2N2CCC3(CC2)CC3)c1 [Example 102-15, N-(3-(N-(tert-butyl)sulfamoyl)phenyl)-6-(3-(methylsulfonyl)azetidin-1-yl)-2-(6-azaspiro[2.5]octan-6-yl)nicotinamide]
Second: O=C(Nc1cccc(S(=O)(=O)NC2CC2)c1)c1cccnc1N1CCC2(CC1)CC2 [Example 101, N-(3-(N-cyclopropylsulfamoyl)phenyl)-2-(6-azaspiro[2.5]octan-6-yl)nicotinamide]
The IC50 of the first is 2.8-fold lower: 0.182 µM for the first, 0.517 µM for the second.

Going from `O=C(Nc1ccc(Br)c(C(=O)N2CCCC(F)(F)C2)c1)c1ccncc1N1CCC2(CC1)CC2` [Example 115-1, N-(4-bromo-3-(3,3-difluoropiperidine-1-carbonyl)phenyl)-3-(6-azaspiro[2.5]octan-6-yl)isonicotinamide] to `O=C(Nc1cccc(S(=O)(=O)N2CCC(F)(F)CC2)c1)c1cccnc1N1CCC2(CC1)CC2` [Example 100-7, N-(3-((4,4-difluoropiperidin-1-yl)sulfonyl)phenyl)-2-(6-azaspiro[2.5]octan-6-yl)nicotinamide], the IC50 falls from 0.577 µM to 0.104 µM (5.5-fold).

First: CCCC1CCN(c2ncccc2C(=O)Nc2cccc(S(=O)(=O)N3CCCCC3)c2)CC1 [Example 100-3, N-(3-(piperidin-1-ylsulfonyl)phenyl)-2-(4-propylpiperidin-1-yl)nicotinamide]
Second: O=C(Nc1cccc(S(=O)(=O)N2CCCCC2)c1)c1cccnc1N1CCC2(CCC2)CC1 [Example 100-4, N-(3-(piperidin-1-ylsulfonyl)phenyl)-2-(7-azaspiro[3.5]nonan-7-yl)nicotinamide]
The IC50 of the first is 3-fold higher: 0.656 µM for the first, 0.217 µM for the second.

`O=C(Nc1cccc(S(=O)(=O)C2CCCC2)c1)c1ccc(NC2(CO)CCC2)nc1N1CCC2(CC1)CC2` [Example 103-5, N-(3-(cyclopentylsulfonyl)phenyl)-6-((1-(hydroxymethyl)cyclobutyl)amino)-2-(6-azaspiro[2.5]octan-6-yl)nicotinamide] and `O=C(Nc1cccc(S(=O)(=O)C2CCCC2)c1)c1ccc(NC2(CO)CC2)nc1N1CCC2(CCC2)CC1` [Example 103-25, N-(3-(cyclopentylsulfonyl)phenyl)-6-((1-(hydroxymethyl)cyclopropyl)amino)-2-(7-azaspiro[3.5]nonan-7-yl)nicotinamide] are within 1.5-fold of each other in IC50: 0.054 µM for the first, 0.038 µM for the second.

Compared with `O=C(Nc1cccc(S(=O)(=O)NC2CCC2)c1)c1cccnc1N1CCC2(CC1)CC2` [Example 101-1, N-(3-(N-cyclobutylsulfamoyl)phenyl)-2-(6-azaspiro[2.5]octan-6-yl)nicotinamide], `CC1(NS(=O)(=O)c2cccc(NC(=O)c3ccc(NC(CO)CO)nc3N3CCC4(CC3)CC4)c2)CCC1` [Example 106-1, 6-((1,3-dihydroxypropan-2-yl)amino)-N-(3-(N-(1-methylcyclobutyl)sulfamoyl)phenyl)-2-(6-azaspiro[2.5]octan-6-yl)nicotinamide] is 4.1-fold lower in IC50: 0.323 µM for the first, 0.078 µM for the second. The second is the more potent here.

`O=C(Nc1cccc(S(=O)(=O)C2CCCC2)c1)c1ccc(NC2(CO)COC2)nc1N1CCC2(CC1)CC2` [Example 103-6, N-(3-(cyclopentylsulfonyl)phenyl)-6-((3-(hydroxymethyl)oxetan-3-yl)amino)-2-(6-azaspiro[2.5]octan-6-yl)nicotinamide] was tested, and the IC50 was 0.039 µM.
